# Assay results from publication PMC6468747 (Cancers, 2019).
# Read-outs that look alike come from different tables or passages of the source.
# Assays:
# MDA-MB-231 cells [1] = assay: Multiplex Luminex supernatant cytokine analysis; format: cell-based, human; conditions: 72 h, cell supernatants
# Protocol: Supernatants from the MDA-MB-231 (TNBC) cells in Fetal Bovine Serum (FBS) containing media were treated with various concentrations of VNLG-12R for 72 h, were collected, and various cytokines and growth factor concentrations (CLCX-1, IL-6, IL8 and TNF-α) were determined by Luminex multiplex assay kit (Millipore, Billerica, MA, USA) according to the manufacturer’s instructions. The expressions of secreted cytokines were read on Luminex 100 reader. The data was then analyzed using the BioPlex Software (BioRad, Hercules, CA, USA). The Luminex multiplex assays were conducted at the University of Maryland School of Medicine Cytokine Core Laboratory (Baltimore, MD, USA).
# MDA-MB-231 cells [2] = assay: Head-to-head MTT antiproliferative assay, 6-day exposure; format: cell-based, human; conditions: Homo sapiens, MDA-MB-231, 144 h
# Protocol: (§1) Figure 2 VNLG-152R inhibits mTORC1 signaling and the production of pro-inflammatory cytokines. (A) MDA-MB-231 and MDA-MB-468 cells were treated with the indicated concentrations of VNLG-152R for 72 h. Cell lysates were analyzed by immunoblotting with the indicated antibodies. (B) Head-to-head antiproliferative effects of VNLG-152R and eFT508 on MDA-MB-231 and MDA-MB-468 cells. The dose-response curves were generated from MTT assays after 6-day exposure to different concentrations of the compounds. Each point is a mean of replicates from three independent experiments. (C–E) MDA-MB-231 cell were treated with the indicated concentration of VNLG-152R or eFT508 for 72 h. Cell supernatants were collected, and the indicated cytokines were quantitated by Multiplex Luminex assay.
# (§2) Cell growth inhibition assay was performed as described previously. For cell growth experiment, cells were treated with the VNLG-152R, VNLG-152E1 or VNLG-15E2 for 7 days. MTT assay was performed at the end of the experiment. Results represent the mean ± standard deviation of three independent experiments.
# MDA-MB-468 cells = assay: as above; format: cell-based, human; conditions: Homo sapiens, MDA-MB-468, 144 h
# Protocol: as §1, §2
# [3] = Plasma pharmacokinetics after single IV and PO dosing; format: in vivo, female CD1 mice; conditions: mouse, in vivo
# Protocol: 5. In vivo Pharmacokinetics (PK) Determination: These studies were Performed by Charles River Laboratories (CRL), Discovery Services, 251 Ballardvale Street, Wilmington, MA 01887, USA.
# The PK studies were performed according to the guidelines and approval of CRL Institutional Animal Care and Use Committee (IACUC) under IACUC approval no: P04172013.
# A total of sixty‐four naïve female CD‐1 mice (including 6 spare animals) were received from Charles River Laboratories, Kingston, NY. Following an acclimation period, the animals were assigned to the study based on acceptable health as determined by a staff veterinarian. For dosing, animals were placed into six groups as detailed in the study design table below. All animals were fasted overnight prior to dosing and food was returned after the 4‐h post‐dose blood collections.
# Each animal in Groups 1, 3 and 5 received a single administration of prepared test article by intravenous tail administration at a target dose level of 2 mg/kg and dose volume of 10 mL/kg. Each animal in Groups 2, 4 and 6 received a single administration of prepared test article by oral gavage at a target dose level of 20 mg/kg and at a dose volume of 10 mL/kg. Dosing was performed on August 13, 2015 as detailed in the study protocol and was completed without incident. Dose administration […]
# Following dosing and at each sample collection time
# Group Mices Test Compound Level Conc. Volume Dose Vehicle Route […]
# Interim blood samples were collected in a leapfrog design from each animal by puncture of a submandibular vein and a terminal blood sample was collected from each animal by intracardiac puncture following euthanasia with CO2 as outlined in the sample collection table below.
# All blood samples were transferred into tubes containing K2EDTA anticoagulant and placed on wet ice immediately after collection until centrifuged at 2200 × g for 10 min at […] to isolate plasma.
# The resulting plasma was transferred to individual polypropylene tubes in a 96‐well plate format and immediately placed on dry ice until storage at nominally […] before transfer to the Test Facility’s bioanalysis group for concentration and HPLC analysis. Individual blood collection times are […]
# Table S4. Sample Collections.
# Collection Information Whole Blood for Plasma Whole Blood for Plasma
# Subgroup A (n = 3) 5 min & 1 h post‐dose 8 h post‐dose
# Subgroup B (n = 3) 15 min & 4 h post‐dose 12 h post‐dose
# Subgroup C (n = 3) 30 min & 6 h post‐dose 24 h post‐dose
# Subgroup D (n = 2) Not applicable 2 h post‐dose
# Subgroup A (n = 3) 15 min & 2 h post‐dose 8 h post‐dose
# Subgroup B (n = 3) 30 min & 4 h post‐dose 12 h post‐dose
# Subgroup C (n = 3) 1 hr & 6 h post‐dose 24 h post‐dose
# Collection conditions K2EDTA K2EDTA
# Collection route Submandibular Intracardiac puncture
# Volume/Time point 100 μL Maximum volume
# The plasma samples for Groups 1‐6, Subgroups A‐C were analyzed for test article concentration using a Research Grade LC MS/MS Assay (RGA‐Level 1). The bioanalytical report, including plasma […]
# Pharmacokinetic parameters were estimated from the plasma concentration‐time data using standard non‐compartmental methods and utilizing suitable analysis software (Watson 7.2 Bioanalytical LIMS, Thermo Electron Corp). Parameters were estimated using nominal sampling times relative to the start of each dose administration (within an acceptable tolerance limit).
# Concentrations below the limit of quantification were excluded from the pharmacokinetic analysis.
# The area under the plasma test item concentration versus time curve (AUC) was calculated using the linear‐log‐linear trapezoidal method. When practical, the terminal elimination phase of each concentration versus time curve was identified using at least the final three observed concentration values. The slope of the terminal elimination phase was determined using log linear regression on the unweighted concentration data.
# Parameter Description of Parameter […]
# [4] = system: panel of 6 human TNBC cell lines; assay: MTT cell growth assay, summary over the panel; format: cell-based; conditions: 7 days
# Protocol: Figure 3 In vitro characterization, pharmacokinetics and toxicity profile of VNLG-152R and its two enantiomers. (A) HPLC chromatograms racemic VNLG-152R (left panel) and the resolved enantiomers VNLG-152E1 and VNLG-152E2 (right panel). The conditions of HPLC procedure are presented in Supplementary Materials. (B) Table summarizing GI50 values (µM) each cell line treated with VNLG-152R and its enantiomers. TNBC cell subtypes were treated with listed compound (0.1 nmol/L–100 µmol/L) for 7 days and the GI50 values for the anti-proliferative effects of the compounds were determined from dose response curves (by a nonlinear regression analysis using Graph Pad Prism). Data represents the results from six independent experiments for each cell line. (C) Plasma concentration versus time profile after intravenous (IV, 2 mg/kg each, top panel) or oral (PO, 20 mg/kg each, bottom panel) of VNLG-152R (red), VNLG-152E1 (purple) and VNLG-152E2 (blue) to female CD1 mice. Values represent the mean plasma concentrations from three mice per time point. (D) Table of the pharmacokinetic parameters of various compounds after IV and PO dosing. AUC = area under the curve, T1/2 = elimination half-life, Cmax = maximum plasma concentration, F (%) = oral bioavailability. (E) Effects of VNLG-152R, VNLG-152E1 and VNLG-152E2 on body weight and clinical observations at chronic dose termination of study. Three different doses, i.e., 10, 25, and 50 mg/kg/day (formulated in 40% β-cyclodextrin in saline) of each compound were administered daily by oral gavage for 14 days. Each group consisted of three mice. Loss in body weight, a clinical sign of toxicity was observed during the 14 days of dosing and the maximum tolerated dose (MTD) was estimated following established procedures. Changes in body weight were scored on a scale of 0–4 as follows as described under methods. […]
# Br-001 xenograft tumors = assay: Patient-derived TNBC xenograft (PDX), PO, racemate vs E1; format: in vivo, NSG mice; conditions: 20 mg/kg PO
# Protocol: The second PDX tumor model experiment was conducted to assess the efficacy of VNLG-152R versus VNLG-152E1 following PO administration. When the tumor volumes had reached about 100 mm^3, the mice were randomly divided into three groups of five mice each. The control group received vehicle (PO) and the other two groups received VNLG-152R (20 mg/kg, PO, once daily), and VNLG-152E1 (20 mg/kg, PO, once daily) five days/week. These treatments continued for 15 days and the tumors were measured and processed as described above.
# [5] = 14-day oral toxicity / MTD study; parameters: species or system female athymic nude mice; conditions: mouse, in vivo, po
# Protocol: Three different doses, i.e., 10, 25, and 50 mg/kg/day (formulated in 40% β-cyclodextrin in saline) of each compound were administered daily by oral gavage for 14 days. Each group consisted of 3 mice. Their body weight kinetics (loss in body weight, a clinical sign of toxicity) was observed during the 14 days of dosing following established procedures. Changes in body weight were scored on a scale of 0–4 as follows: (1) Weight loss: (10 g = 4, 7–9 g = 3, 4–6 g = 2, 1–3 g = 1; severe = 3, moderate = 2, slight = 1, none = 0).
# MDA-MB-231 xenografts = assay: MDA-MB-231 xenograft, racemate vs enantiomers, IP vs PO; format: in vivo, nude mice; conditions: 20 mg/kg per day PO, 36 days
# Protocol: The second experiment designed to compare heal-to-head IP versus oral dosing (PO) and the efficacy of racemic VNLG-152 versus its two enantiomers was like that described above but consisted of eight groups. When the tumor volumes had reached about 100 mm^3, the mice were randomly divided into 8 groups of 5 mice each. The two control groups received vehicle (IP or OP) and the other six groups received VNLG-152R (20 mg/kg, IP or PO, once daily), VNLG-152E1 (20 mg/kg, IP or PO, once daily), and VNLG-152E2 (20 mg/kg, IP or PO, once daily) five days/week. These treatments continued for 36 days and the tumors were measured and processed as described above.
# Mnk1 = target: T1, Mnk1 (Homo sapiens, UniProt Q9BUB5); assay: Streptavidin-agarose pull-down with biotinylated VNLG-152R; format: binding; conditions: 50 µg
# T1 construct: incubated with recombinant full length Mnk1 proteins or cell lysates overnight at 4 °C; GST
# T1 sequence (Q9BUB5 whole entry): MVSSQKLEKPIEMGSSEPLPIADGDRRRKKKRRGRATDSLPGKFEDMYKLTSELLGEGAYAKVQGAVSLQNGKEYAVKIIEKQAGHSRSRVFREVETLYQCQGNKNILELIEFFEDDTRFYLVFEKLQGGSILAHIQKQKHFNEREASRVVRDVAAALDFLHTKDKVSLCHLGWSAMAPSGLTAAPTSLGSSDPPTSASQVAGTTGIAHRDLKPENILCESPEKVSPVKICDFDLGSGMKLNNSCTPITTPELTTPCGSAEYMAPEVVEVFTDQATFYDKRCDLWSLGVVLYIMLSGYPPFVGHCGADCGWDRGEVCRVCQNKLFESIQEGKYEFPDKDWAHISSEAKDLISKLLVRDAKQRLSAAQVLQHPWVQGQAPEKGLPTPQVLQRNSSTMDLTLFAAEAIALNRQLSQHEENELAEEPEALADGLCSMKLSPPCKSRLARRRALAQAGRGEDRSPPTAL
# Protocol: The streptavidin–agarose pull-down assay was performed as described previously. Biotin-VNLG-152R (50 µg) and biotin (50 µg; negative control) were preincubated with streptavidin agarose beads (Invitrogen, Waltham, MA, USA) overnight at 4 °C. The biotin-VNLG-152R-conjugated beads were washed three times with cold PBS and then incubated with recombinant full length Mnk1 proteins or cell lysates overnight at 4 °C. The bead-bound proteins were incubated and separated on a 10% SDS-PAGE and detected by western blot analysis for Mnk1.
# [6] = mean over 6 TNBC cell lines, read-out: average GI50
# [7] = range over 6 TNBC cell lines, read-out: range of GI50
smiles,measurement,setting,value
"Cc1cc(Nc2cc(N)ncn2)c(=O)n2c1C(=O)NC21CCCCC1.Cl [eFT508, 6′-[(6-aminopyrimidin-4-yl)amino]-8′-methyl-2′Hspiro[cyclohexane-1,3′-imidazo-[1,5-a]pyridine]-1′,5′-dione hydrochloride (1:1), reference compound]","secreted IL-6 and IL-8, TNFα and chemokine CXCL1",MDA-MB-231 cells [1],dose-dependent reduction
same,secretion of CXCL1,MDA-MB-231 cells [1],seem to stimulate secretion of CXCL1
same,GI50,MDA-MB-231 cells [2],7070 nM
same,GI50,MDA-MB-468 cells,52500 nM
"CC1=C(/C=C/C(C)=C/C=C/C(C)=C/C(=O)Nc2ccc(F)cc2)C(C)(C)CCC1n1ccnc1 (single isomer, unassigned) [VNLG-152E1]",F (%) oral bioavailability,[3],161.9%
same,AUC(0-inf),"[3]; iv, 2 mg/kg",2100 ng·h/mL
same,T1/2,"[3]; iv, 2 mg/kg",1.78 h
same,AUC(0-inf),"[3]; po, 20 mg/kg",34000 ng·h/mL
same,Cmax,"[3]; po, 20 mg/kg",4880 ng/mL
same,T1/2,"[3]; po, 20 mg/kg",4.49 h
same,GI50,[4]; [6],2300 nM
same,GI50,[4]; [7],980 to 4790 nM
same,changes in body weights,Br-001 xenograft tumors,No changes in body weights were observed
same,TGI,"Br-001 xenograft tumors; 5 days per week, 15 days",79%
same,maximum tolerated dose (MTD),[5],> 50 mg/kg
same,TGI,MDA-MB-231 xenografts,78%
"CC1=C(/C=C/C(C)=C/C=C/C(C)=C/C(=O)Nc2ccc(F)cc2)C(C)(C)CCC1n1ccnc1 (single isomer, unassigned) [VNLG-152E2]",F (%) oral bioavailability,[3],72.8%
same,AUC(0-inf),"[3]; iv, 2 mg/kg",1840 ng·h/mL
same,T1/2,"[3]; iv, 2 mg/kg",1.10 h
same,AUC(0-inf),"[3]; po, 20 mg/kg",13400 ng·h/mL
same,Cmax,"[3]; po, 20 mg/kg",3590 ng/mL
same,T1/2,"[3]; po, 20 mg/kg",4.02 h
same,GI50,[4]; [6],390 nM
same,GI50,[4]; [7],100 to 1170 nM
same,maximum tolerated dose (MTD),[5],> 50 mg/kg
CC1=C(/C=C/C(C)=C/C=C/C(C)=C/C(=O)N(CCOC(=O)CCCC[C@@H]2SC[C@@H]3NC(=O)N[C@@H]32)c2ccc(F)cc2)C(C)(C)CCC1n1ccnc1 (stereo partly drawn) [VNLG-152R-biotin],Mnk1 captured in streptavidin pull-down,Mnk1; MDA-MB-231 cells,direct binding of Mnk1 to VNLG-152R-biotin in MDA-MB-231 cells
same,Mnk1 captured in streptavidin pull-down,Mnk1; recombinant Mnk1 protein,substantial amounts of Mnk1 was found only in the VNLG-152R-biotin-treated sample
